The record followed here is ChEMBL document CHEMBL1201862, “PubChem BioAssay data set” (2004).

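Following 48 hours of exposure in 96-well plates, responses at five concentrations were used to interpolate endpoints linearly. Here, GI50 denotes the concentration required for 50% inhibition of growth.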 Active and inactive are the calls of the source. No stated cut-off is given here; in the data, active = GI50 up to about 1.1 µM and inactive = higher.

Holding throughout (assay): NCI anticancer screen, dose series, 48 h
In assay [1] the test system is TK-10.
Assay [2] relates to SK-MEL-5.
The subject of assay [3] is SR.
Assay [4] deals with UACC-62.
Assay [5] has as its system SW-620.
Assay [6] has as its system SN12C.
Assay [7] deals with SK-OV-3.
Assay [8] concerns A498.
Assay [9] deals with Malme-3M.
In assay [10] the test system is RPMI-8226.
In assay [11] the test system is NCI-H226.
Assay [12] deals with HOP-92.
Assay [13] relates to SF-268.
Assay [14] concerns HCT-15.
Assay [15] deals with MOLT-4.
Assay [16] has as its system BT-549.
The subject of assay [17] is KM12.
Assay [18] relates to COLO 205.
Assay [19] concerns MDA-MB-435.

`O=C(/C=C/c1cccc(Oc2ccccc2)c1)NCc1ccc(C(=O)NCc2ccccc2)cc1`: the GI50 is 46.5 µM (inactive) in assay [1]; > 100 µM (inactive) in [2]; > 100 µM (inactive) in [3]; 79.8 µM (inactive) in [4]; > 100 µM (inactive) in [5]; > 100 µM (inactive) in assay [6]. Besides, the GI50 in assay [7] is 4.55 µM (inactive); in assay [8], 51.5 µM (inactive); in assay [9] it was 41.3 µM (inactive); in [10], > 100 µM (inactive); in [11], 27.5 µM (inactive); in assay [12], 37.8 µM (inactive). Further, the GI50 is > 100 µM (inactive) in assay [13]; above 100 µM in assay [14]; > 100 µM (inactive) in [15]; 60.1 µM (inactive) in assay [16]; > 100 µM (inactive) in assay [17]; > 100 µM (inactive) in [18]. The GI50 in assay [19] was > 100 µM (inactive).
`CCCCCCCCCCCCP(=O)(O)OCC(N)C(=O)O` (centres undefined): the GI50 was 33.3 µM (inactive) in assay [1]; 32.5 µM (inactive) in assay [2]; 24.2 µM (inactive) in assay [3]; 40.3 µM (inactive) in [5]; 18.9 µM (inactive) in assay [6]; 21.6 µM (inactive) in assay [7]. Moreover, the GI50 is 23.5 µM (inactive) in assay [8]; > 100 µM (inactive) in assay [9]; 30.9 µM (inactive) in [10]; 40.7 µM (inactive) in assay [11]; 25.4 µM (inactive) in assay [12]; 23.9 µM (inactive) in [13]. Further, the GI50 in assay [14] was 17.5 µM; in assay [15], 16.9 µM (inactive); in [16], 29.6 µM (inactive); in assay [18] it was 45.8 µM (inactive); in assay [19] it was 18.3 µM (inactive).
For the compound `O=C1CCCCC1=C(I)I`, the GI50 was 17.9 µM (inactive) in assay [2]; 16.1 µM (inactive) in [3]; 17.1 µM (inactive) in assay [4]; 17.4 µM (inactive) in assay [5]; 23.7 µM (inactive) in [6]; 22.6 µM (inactive) in assay [7]. In addition, the GI50 was 20.5 µM (inactive) in assay [8]; 14.3 µM (inactive) in assay [9]; 15.1 µM (inactive) in assay [10]; 19.7 µM (inactive) in assay [11]; 15.4 µM (inactive) in assay [12]; 19.4 µM (inactive) in assay [13]. The GI50 in assay [15] is 17.9 µM (inactive); in [16] it was 13 µM (inactive); in [17], 15.5 µM (inactive); in assay [18] it was 15.3 µM (inactive); in [19] it was 19.1 µM (inactive).
For the compound `CCN(CC)C(=S)SS(=O)(=O)c1ccccc1C(=O)O`, the GI50 is > 100 µM (inactive) in assay [1]; > 60.7 µM (inactive) in assay [2]; 3.6 µM (inactive) in assay [3]; 66.4 µM (inactive) in [4]; > 100 µM (inactive) in assay [5]; > 94.8 µM (inactive) in assay [6]. The GI50 is > 100 µM (inactive) in assay [7]; > 38 µM (inactive) in [8]; > 96.4 µM (inactive) in assay [9]; > 100 µM (inactive) in [10]; > 46.7 µM (inactive) in [11]; > 100 µM (inactive) in assay [12]. Besides, the GI50 in [13] is 98.2 µM (inactive); in [14], above 100 µM; in assay [15] it was 0.933 µM (active); in assay [16] it was > 100 µM (inactive); in [17], > 100 µM (inactive); in [18], > 100 µM (inactive). The GI50 in assay [19] was > 100 µM (inactive).
`CC(=O)Oc1c2c(c(CC=C(C)C)c3c1C(=O)C1=C[C@@H]4CC5C(C)(C)OC(C/C=C(/C)C(=O)O)(C4=O)[C@@]15O3)OC(C)(CCC=C(C)C)C=C2` (some centres undefined): the GI50 in assay [1] is 0.134 µM (active); in assay [2], 0.378 µM (active); in [3], 0.258 µM (active); in assay [4], 0.282 µM (active); in assay [5] it was 0.091 µM (active); in [6] it was 0.181 µM (active). The GI50 in [7] is 0.585 µM (active); in [8], 0.65 µM (active); in assay [9], 0.29 µM (active); in [10], 0.184 µM (active); in assay [11], 0.313 µM (active); in [12] it was 0.237 µM (active). The GI50 in [13] is 0.408 µM (active); in assay [14], 0.244 µM; in [15], 0.0769 µM (active); in assay [16] it was 0.205 µM (active); in assay [17] it was 0.188 µM (active); in assay [18] it was 0.195 µM (active). Further, the GI50 in [19] was 0.161 µM (active).
As for `O=C(Nc1ccc2ccccc2c1)Nn1cnnc1`, the GI50 in assay [1], in [2], in assay [3], in assay [4], in [5] and in assay [7] was > 100 µM (inactive) throughout. The GI50 in [8] was > 100 µM (inactive); in assay [9], > 100 µM (inactive); in [10] it was > 100 µM (inactive); in assay [11], 35.3 µM (inactive); in assay [12], > 100 µM (inactive); in [13], > 100 µM (inactive). In addition, the GI50 is above 100 µM in assay [14]; > 100 µM (inactive) in assay [15]; > 100 µM (inactive) in assay [16]; > 100 µM (inactive) in assay [17]; > 100 µM (inactive) in assay [18]; > 100 µM (inactive) in [19].
Turning to `OCC1OC(O)C(/N=C\c2ccc3c(c2)OCO3)C(O)C1O` (centres undefined), the GI50 in assay [1], in assay [2], in assay [3], in assay [4], in [5] and in assay [7] was > 100 µM (inactive) in each case. In addition, the GI50 in assay [8], in [9], in assay [10], in assay [11], in assay [12] and in assay [13] was > 100 µM (inactive) each time. Also, the GI50 in assay [14] was above 100 µM; in assay [15] it was > 100 µM (inactive); in assay [16] it was > 100 µM (inactive); in assay [17], > 100 µM (inactive); in [18] it was > 100 µM (inactive); in assay [19], > 100 µM (inactive).
As for `COC(=O)C1CN=CN1CCc1ccccc1` (centres undefined), the GI50 in [1], in [2], in [3], in assay [4], in assay [5] and in assay [7] was > 100 µM (inactive) throughout. Also, the GI50 was > 100 µM (inactive) in assay [8]; > 100 µM (inactive) in assay [9]; > 100 µM (inactive) in [10]; > 100 µM (inactive) in assay [11]; > 100 µM (inactive) in [12]; above 100 µM in assay [14]. Further, the GI50 in [15], in assay [16], in assay [17], in assay [18] and in assay [19] was > 100 µM (inactive) each time.
